Data published in patent US20200399250A1, “Pyrimidine Derivatives as Tropomyosin Receptor Kinase A (TRKA) Inhibitors” (BIOMED X GMBH, priority 2017, published 2020).
pIC50: −log10 of the molar value. Several values for one entry are separate records, joined by “and”; a condition that tells them apart may be missing. Identical values can stand only once.

What was measured:
[1] = target: full-length human TrkA receptor (Homo sapiens, UniProt P04629); test: PathHunter cellular functional assay, antagonism of β-NGF; format: cell-based; conditions: antagonism at EC80 (0.03 μg/ml) of β-NGF; read-out: Cellular assay [RC50]
Description: The two compounds a1 and b7 were additionally tested in a functional assay using the PathHunter® technology (DiscoverX Corporation, Freemont, Calif., USA; https://www.discoverx.com/technologies-platforms/enzyme-fragment-complementation-technoloqy/cell-based-efc-assays/protein-protein-interactions/kinases-cell-based-(rtk-ctk)). In this assay, the full-length human TrkA receptor (i.e. including ligand-binding and kinase domains) is expressed as a C-terminal (intracellular) fusion with a small peptide epitope, called Prolink™ (PK). Furthermore, a SH2 domain containing protein (i.e. Shc1) is co-expressed with a larger Enzyme Acceptor (EA) fragment. Activation of the TrkA receptor by adding the agonist ligand (β-NGF), leads to the auto-phosphorylation of the kinase and subsequent binding of the Shc1-EA protein. That recruitment results in an active B-galactosidase enzyme that is detected by addition of a chemiluminescent substrate.
Compounds were tested for antagonism using EC80 concentration (i.e. 0.03 μg/ml) of β-NGF. Data was normalized to the maximal and minimal response observed in the presence of EC80 agonist ligand (3-NGF) and vehicle (DMSO, final concentration 1%), respectively.

[2] = Plasma concentration of compound a1 after i.v. injection in mice (LC-MS-MS); format: in vivo, C57Bl/6 mice; conditions: for Plasma Conc. of Compound a1: 1 hour, single animal; for concentration at 1 h: female, C57Bl/6, mouse, plasma, intravenous
Experimental: Compound a1 was synthesized under contract by the company Enamine Ltd. according to Example 1. Dimethylsulfoxide (DMSO) from J. T. Baker (Germany), Cremophor EL (Polyoxyethyleneglycerol triricinoleate 35 castor oil) from BASF (Germany), and Saline solution 0.9% from B. Braun (Germany) were used in this study. Two types of formulations were prepared: a formulation with a high dose of compound a1 (9 mM) and a formulation with a low dose of compound a1 (1.8 mM); c.f. Tables 5 and 6. First, a 100 mM stock solution of compound a1 in DMSO was prepared by dissolving 18.46 mg of compound a1 (molecular weight of 461.56 g/mol) in 400 μl DMSO at room temperature. The formulation with the high dose of a1 was prepared using 9% a1-DMSO stock solution, 10% Cremophor EL, and 81% saline. The formulation with the low dose of a1 contained 1.8% a1-DMSO stock solution, 5% Cremophor EL, and 93.2% saline; c.f. FIG. 2.
Experiments were carried out in accordance with the EU Directive 86/609/EEC on the protection of animals used for scientific purposes. Female adult C57Bl/6 mice (6-8 weeks old, body weight 20 g) were treated with 5 mg/kg (low dose) and 25 mg/kg (high dose) compound a1 or with vehicle (formulations without compound a1) or with saline by intravenous (i.v.) injections for 1 hour using a 1 ml syringe (29-G, Terumo); c.f. Table 6. After injection, the mice were returned to their home cages, and after 1 hour, the mice were anaesthetized with isoflurane. Terminal blood samples were collected using a 1 ml syringe (20-G needle, B. Braun). The blood was immediately transferred into a 1.3 ml heparin-coated tube (Sarstedt). Plasma was collected by centrifugation at 1500 g for 15 minutes. The supernatant was placed in a 1.5 ml tube on dry ice and stored at −20° C.
The quantification of compound a1 in murine plasma samples was performed via liquid chromatography tandem mass spectrometry (LC-MS-MS).

Sequence of full-length human TrkA receptor (P04629 33-796): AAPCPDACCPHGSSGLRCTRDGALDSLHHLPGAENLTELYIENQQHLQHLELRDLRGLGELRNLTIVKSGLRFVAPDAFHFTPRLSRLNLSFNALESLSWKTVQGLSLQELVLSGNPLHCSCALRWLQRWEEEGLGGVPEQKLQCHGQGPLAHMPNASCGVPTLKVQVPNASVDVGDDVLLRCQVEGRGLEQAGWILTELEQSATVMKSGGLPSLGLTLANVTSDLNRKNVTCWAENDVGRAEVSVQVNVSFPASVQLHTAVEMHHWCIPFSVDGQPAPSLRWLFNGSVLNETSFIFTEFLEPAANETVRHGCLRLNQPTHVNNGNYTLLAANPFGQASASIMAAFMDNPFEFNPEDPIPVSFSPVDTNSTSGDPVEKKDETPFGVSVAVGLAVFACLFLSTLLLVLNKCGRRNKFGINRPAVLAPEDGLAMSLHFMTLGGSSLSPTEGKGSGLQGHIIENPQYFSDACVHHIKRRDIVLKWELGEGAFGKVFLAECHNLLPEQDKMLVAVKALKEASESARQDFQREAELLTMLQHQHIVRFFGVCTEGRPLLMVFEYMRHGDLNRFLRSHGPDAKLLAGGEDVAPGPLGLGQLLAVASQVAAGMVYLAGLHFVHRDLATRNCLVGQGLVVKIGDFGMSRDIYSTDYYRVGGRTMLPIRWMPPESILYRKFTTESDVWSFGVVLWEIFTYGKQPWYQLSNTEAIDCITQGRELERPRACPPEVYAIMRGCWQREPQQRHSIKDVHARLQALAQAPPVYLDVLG
Sequence of full-length human TrkA receptor (P01138 122-241 partner): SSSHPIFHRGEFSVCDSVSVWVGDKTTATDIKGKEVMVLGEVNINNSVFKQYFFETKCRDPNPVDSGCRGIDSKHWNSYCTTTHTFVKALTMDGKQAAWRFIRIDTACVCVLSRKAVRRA

## CN1CCN(c2cc(Nc3cc(-c4cccc(F)c4)[nH]n3)nc(Sc3ccccc3)n2)CC1 [a1, N-[5-(3-fluorophenyl)-1H-pyrazol-3-yl]-6-(4-methylpiperazin-1-yl)-2-(phenylsulfanyl)pyrimidin-4-amine]
[1]
  pIC50: 7.59
[2]; a1_high formulation, 25 mg/kg i.v., 25 mg/kg
  Plasma Conc. of Compound a1: 805 nM and 920 nM
[2]; a1_low formulation, 5 mg/kg i.v., 5 mg/kg
  Plasma Conc. of Compound a1: 272 nM and 407 nM
[2]; 5 mg/kg (low dose) i.v.
  concentration at 1 h: 340 nM
[2]; 25 mg/kg (high dose) i.v.
  concentration at 1 h: 863 nM
